In patent publication US7629317B2, “Control of growth and repair of gastro-intestinal tissues by gastrokines and inhibitors” (The University of Chicago, priority 2001, dated 2009):
“Also recorded” adds a separate entry of the source.

Columns and labels:
HAE cells [1] = assay: Growth of human antrum epithelial (HAE) cells (cell count 4 days later); type: cell-based
Method: (§1) To measure growth (left panel), HAE cells were plated in 60-mm dishes. Peptide 77-97 (8 μg/ml), or EGF (50 ng/ml), or both were added to the medium and the number of cells counted 4 days later. […] Values are means±SE for 3 cultures. To measure migration (right panel), cells were grown in 60-mm dishes to prepare a confluent monolayer. The medium was aspirated and replaced with fresh medium containing 0.01% calf serum (CS). The monolayer was mechanically wounded by scraping with a razor blade. Detached cells were removed by aspirating medium, and rinsing the remaining cells twice with fresh medium containing 0.01% CS. Fresh medium (5 ml) containing CS (0.01%) and insulin (100 U/L) was added to wounded cultures. Either peptide 77-97 (8 μg/ml), EGF (50 ng/ml), or both were added to duplicate cultures. Migration was assessed at 24, 48 and 72 hr after wounding by measuring the distance (in mm) that cells had migrated from the wound edge using a microscope eyepiece reticle (10-mm long; 0.1-mm markings). Migrating cells at 12 randomly chosen sites along a 0.25-mm stretch of the wound edge were measured at 40-fold magnification. Migration at 2 different sites was measured for each of 2 separate wounds made in each culture. Values are the mean distance cells moved into the denuded area from the edge of 4 different wounds in 2 cultures±SE.
(§2) To characterize the capacity of gastric and intestinal cells to respond to AMP-18, AGS gastric adenocarcinoma cells, HAE human gastric antrum mucosa primary cultures transformed with SV40 large T antigen, rat diploid small intestinal epithelial cells of the IEC-6 (FIG. 15) and IEC-18 lines, NCI N-87 gastric carcinoma cells, and SK-GT5 gastroesophageal adenocarcinoma cells were studied; human WI-38 fibroblasts and HeLa cells served as non-GI control cell lines. Mitogenesis was assayed by performing cell counts 3 to 4 days after exposing cells to the agent of interest, trypsinizing the culture to prepare single cells, and confirming this while counting them in a hemocytometer.

HAE cells [2] = assay: Wound restitution (migration) of scrape-wounded HAE cell monolayers; type: cell-based, human
Method: as §1
Confluent monolayer cultures were mechanically wounded by scraping with a razor blade, and the distance that cells migrated from the wound edge was measured using a microscope eyepiece reticle.

NCI N-87 cells = assay: Growth of NCI N-87 gastric carcinoma cells; type: cell-based; settings: concentration-dependent
Method: as §2

[3] = tested on: mice with DSS-induced colitis; assay: DSS-induced colitis in mice (blood in stool, body weight); type: in vivo, C57BL/6 male mice; settings: P<0.01
Method: FIG. 27, Left Panel: Effect of AMP peptide on appearance of blood in the stool of mice with DSS-induced colitis. Mice (n=50) were given 3% dextran sulfate sodium, and stools were assayed daily for the presence of blood. Appearance of bloody diarrhea was delayed in animals treated with AMP peptide (10 mg/kg body weight/day) compared to those given the vehicle (P<0.01). Right panel: Effect of treatment with AMP peptide on body weight of mice with DSS colitis. After animals (n=20) received 3% DSS to drink for 4 days, they were switched to water (day 0 on graph).
To evaluate the therapeutic efficacy of AMP peptide in vivo, colitis of mild to moderate severity was induced in C57BL/6 male mice by giving the animals DSS (3%) dissolved in tap water to drink ad libitum. Evidence of colitis (blood in the stool assayed by hemoccult strips) was found as early as day 1 (FIG. 27, left panel), and in all animals given injections of the vehicle subcutaneously (s.c.) by day 4. AMP peptide was administered s.c. one day before animals were given DSS, and once per day thereafter. Bloody stool was detected in fewer animals given AMP peptide than the vehicle (P<0.01; n=50).
To look for a systemic effect of treatment with AMP peptide during the development of DSS colitis, body weight was measured. During the first 4 days of DSS administration, body weight changed little in peptide- or vehicle-treated mice. Then DSS was discontinued, the animals were given water to drink (day 0; FIG. 27, right panel), and measurements of weight were continued. […] Because DSS treatment appeared to injure barrier function in monolayer cultures of C2 cells, assessed as a decrease in TER (FIG. 22) and reduced occludin in the detergent-insoluble fraction (FIG. 36), a question was whether DSS might adversely affect the content of this TJ protein in vivo. […] Occludin levels in the NP-40-insoluble fraction were assessed by immunoblotting. […]

[4] = tested on: Staphylococcus epidermidis; assay: Growth of other bacteria and fungi; type: cell-based
Enterococcus faecalis = assay: Growth of other bacteria and fungi; type: cell-based
Pseudomonas aeruginosa = assay: Growth of other bacteria and fungi; type: cell-based
Candida albicans = assay: Growth of other bacteria and fungi; type: cell-based
[5] = peptide 77-97 8 μg/ml + EGF 50 ng/ml

Sequence: LDALVKEKKLQGKGPGGPPPK [97–117, peptide 77-97 of the mature protein, same as 97-117 of the human precursor]
- proliferation together with EGF (HAE cells [1]; [5]): additive
- proliferation of HAE cells (in words) (HAE cells [1]; peptide 77-97 8 μg/ml, EGF 50 ng/ml, 4 days): stimulated proliferation
- migration from the wound edge compared with vehicle (HAE cells [2]; peptide 8 μg/ml, EGF 50 ng/ml, 24-72 hr): migrated further
- migration, peptide and EGF acting together (HAE cells [2]; [5]): markedly enhanced migration
- growth of NCI N-87 cells (NCI N-87 cells): stimulated
- appearance of blood in the stool (bloody diarrhea) versus vehicle ([3]; 3% DSS, 10 mg/kg body weight/day s.c., listed as AMP peptide, 10 mg/kg/day): fewer animals; also recorded: delayed
- body weight loss versus vehicle ([3]; 3 days after switching from 3% DSS to water, 10 mg/kg s.c. daily): lost less weight
- recovery of body weight ([3]; day 7 after stopping DSS, listed as AMP peptide): complete recovery; also recorded: completely recovered
- growth of Staphylococcus epidermidis [4]: did not alter the growth
- growth of Enterococcus faecalis (Enterococcus faecalis): did not alter the growth
- growth of Pseudomonas aeruginosa (Pseudomonas aeruginosa): did not alter the growth
- growth of Candida albicans (Candida albicans): did not alter the growth
